Assay results published in patent US10065965B2, “Imidazo[1,2-B][1,2,4]triazine derivatives as antiparasitic agents” (GlaxoSmithKline Intellectual Property Development Limited, priority 2015, dated 2018).
Values after ≈ are worked out from the molar mass of the structure shown.

Columns and labels:
Trypanosoma brucei = test: Assay 3 Trypanosoma brucei cell growth inhibition assay; type: cell-based; conditions: T. b. brucei BSF427, 69 h + 4 h resazurin, maximum threshold 8.0, read-out: pEC50 value against Trypanosoma brucei (converted)
Method: Measurement of the ability of the compounds to inhibit trypanosome (T. b. brucei, BSF427, VSG118) cell growth was performed using a modification of the cell viability assay previously described by Raz et al. (Raz B.; Iten M.; Grether-Buhler Y.; Kaminski R.; Brun R. The Alamar Blue assay to determine drug sensitivity of African trypanosomes (T. b. rhodesiense and T. b. gambiense) in vitro. Acta Trop. 1997, 68, 139-147). Compounds were dissolved in DMSO at a top concentration of 10 mM and serially diluted in half log steps to achieve a range of final assay concentrations of 50 μM to 0.5 nM. Compound at each concentration (200-fold final) was added to clear 96-well tissue culture plates in a volume of 1 μL. Then 2000 cells per well in relevant growth medium (HMI-9T for T. brucei, a modification of HMI-9 as described by Hurumi et al. (Hirumi H.; Hirumi K. Continuous cultivation of Trypanosoma brucei blood stream forms in a medium containing a low concentration of serum-protein without feeder cell-layers. J. Parasitol. 1989, 75, 985-989.) where 0.2 mM 2-mercaptoethanol was replaced with 0.056 mM thiolglycerol, and MEM with 10% FBS for MRC5) were then added to columns 1-11 of the plates in a volume of 199 μL. To column 12, 200 μL of medium was added to provide a no cells control. Plates were then incubated at 37° C. in an atmosphere of 5% CO2 for 69 h, before the addition of 20 μL of 500 μM rezasurin solution, and a further incubation period of 4 h. Plates were then read on a BioTek flx800 fluorescent plate reader, and percentage inhibition was compared to the maximum and minimum assay controls. Concentration effect curves were fitted using nonlinear regression using XLFit 4.2 and EC50 values determined.

Trypanosoma cruzi [1] = test: Assay 6 Trypanosoma cruzi intracellular assay (infected H9C2 cells); type: cell-based; conditions: H9c2, in Rattus norvegicus, 72 h, infected H9C2 rat cardiomyocytes, read-out: pEC50 value against Trypanosoma cruzi (converted)
Method in brief: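 Infected H9C2 rat cardiomyocytes (T. cruzi trypomastigotes, MOI 1, 18 h) plated at 2500 cells/well on compound, 11-point 1:3 curves from 50 μM top, 72 h at 37 °C in 2% FBS DMEM. Fixed, Draq5-stained, high-content imaged; algorithm counts parasites per cell, % infected cells and total host cells (cytotoxicity).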

Trypanosoma cruzi [2] = test: Assay 2 Trypanosoma cruzi intracellular assay (infected Vero cells); type: cell-based; conditions: 72 h, read-out: pEC50 value against Trypanosoma cruzi (converted)
Method: Compounds were dispensed into black 384-well assay plates (Corning) by acoustic dispensing (LabCyte ECHO). For potency determinations, ten-point one in three dilution curves were generated, with a top concentration of 50 μM. Vero cells were infected overnight with T. cruzi trypomastigotes in T225 tissue culture flasks at a multiplicity of infection of 5. Next, any remaining free trypomastigotes were washed away with serum free MEM media and the infected Vero cells were harvested by trypsinisation. The infected Vero cells were then plated into 384-well plates containing the compounds to be tested, at 4000 cells per well in MEM media with 1% FCS. After 72 h incubation at 37° C. in presence of 5% CO2, the plates were fixed with 4% formaldehyde for 20 minutes at room temperature and stained with 5 μg/ml Hoechst 33342. The plates were imaged on a Perkin Elmer Operetta high-content imaging system using a 20× objective. Images were analysed using the Columbus system (Perkin Elmer). The image analysis algorithm first identified the Vero nuclei followed by demarcation of the cytoplasm and identification of intracellular amastigotes. This algorithm reported mean number of parasites per Vero cell and total number of Vero cells.

[3] = Assay 6 Trypanosoma cruzi intracellular assay, cytotoxicity against H9c2 cells; type: cell-based; conditions: rat, H9C2 cardiomyocytes infected with T. cruzi trypomastigotes, total number of H9C2 cells, minimum threshold 4.3, read-out: cytotoxicity against H9c2 cells, pEC50 (converted)
Method: Compounds were dispensed into black 384-well assay plates (Greiner) by acoustic dispensing (LabCyte ECHO). For potency determinations, eleven-point, one in three dilution curves were generated, with a top concentration of 50 μM. H9C2 rat cardiomyocytes cells were dispensed in T225 tissue culture flasks and after 4 hours they were infected during 18 hours with T. cruzi trypomastigotes in the same T225 tissue culture flasks at a multiplicity of infection of 1. Next, any remaining free trypomastigotes were washed away with PBS and the infected H9C2 cells were harvested by trypsinisation. The infected H9C2 cells were then plated into 384-well plates containing the compounds to be tested, at 2500 cells per well in DMEM media with 2% FBS, 1% Penicillin/Streptomocin, 2 mM L-Glutamine, 1 mM Na Pyruvate and 25 mM HEPES. After 72 h incubation at 37° C. in presence of 5% CO2, the plates were fixed and stained with 4% formaldehyde and 2 μM Draq5 for 3 hours at room temperature. The plates were imaged on a Perkin Elmer Opera high-content imaging system using a 20× air objective. Images were analysed using the Acapella building blocks system (Perkin Elmer). The image analysis algorithm first identified the H9C2 nuclei followed by demarcation of the cytoplasm and identification of intracellular amastigotes. This algorithm reported mean number of parasites per H9C2 cell, the percentage of infected H9C2 cells and the total number of H9C2 cells.

Leishmania donovani = test: Assay 1 intramacrophage Leishmania donovani assay (potency readout); type: cell-based; conditions: amastigotes in PMA-treated THP-1 macrophages, 96 h, average number of amastigotes per cell, minimum threshold 4.3, read-out: pEC50 value against Leishmania donovani (converted)
Method: (§1) The intramacrophage Leishmania assay was performed using a modified version of the method described in De Rycker et al. (Antimicrob Agents Chemother. 2013 July; 57(7):2913-22. Comparison of a high-throughput high-content intracellular Leishmania donovani assay with an axenic amastigote assay. De Rycker M, Hallyburton I, Thomas J, Campbell L, Wyllie S, Joshi D, Cameron S, Gilbert I H, Wyatt P G, Frearson J A, Fairlamb A H, Gray D W.). Procedure: 350 nl of compound was pre-dispensed into 384 well sterile intermediary plates. For single point screening, amphotericin B was added to all wells of column 24 as a positive control (final concentration 2 μM) and DMSO to column 23. For potency determinations, ten-point, one in three dilution curves were created with the highest concentration being 50 μM and on each plate a control curve of amphotericin B was included. Controls were as follows: columns 11 and 12: DMSO, columns 23 and 24: amphotericin B (final concentration 2 μM). To the intermediary plates, 35 μl of THP-1 media was added and plates were shaken for >5 min to ensure complete mixing. THP-1 cells (8,000 per well, 50 μl) were plated into black clear-bottom 384 well plates (Corning) in presence of 20 nM PMA. After 20 min at RT, the plates were incubated at 37° C. under 5% CO2 in a humidified incubator for 75 h. The cells were then washed with […] sterile phosphate buffered saline (PBS) supplemented with 1 mM CaCl2, 0.5 mM MgCl2, 0.1% (w/v) bovine serum albumin (PBS-A) and amastigotes were added to all wells at a multiplicity of infection of 5 (40,000 amastigotes per well). After 40 min at RT, plates were returned to the incubator. Amastigotes were incubated in the presence of THP-1 macrophages for 16 h. Any remaining extracellular amastigotes were subsequently removed with an overflow wash of 1 mL PBS-A per well (wash buffer is being aspirated from the top of the well as it is being dispensed) followed by addition of 25 μl of the compound pre-dilutions using a Fluidx Ipette-pro pipetting station. The final dilution of each compound was 200-fold. Plates were incubated for 96 h and then washed (250 μl PBS-A) and fixed (4% (v/v) formaldehyde-PBS, 30 min, RT). After fixation, the wells were washed with 250 μl PBS, stained (10 μg/mL DAPI, 0.4 μg mL-1 HCS Cellmask Deep Red in PBS+0.1% (v/v) Triton X-100, 30 min, RT) and washed with 250 μl PBS. Finally, PBS+0.05% (v/v) thimerosal was added to the wells, the plates were sealed and imaged on a high-content microscope (GE IN Cell 2000) using a 10× objective. Image analysis was carried out with GE IN Cell Analyzer 1000 Workstation using the “Multi Target Analysis” module. Settings for segmentation were as follows: nuclei: minimum area: 142.384 μm2, sensitivity: 81, method: top-hat; cells: characteristic area: 2500 μm2, sensitivity: 60, method: multiscale top-hat; organelles (amastigotes): granule size 1-3, 3 scales, sensitivity: 90, detection in entire cell. For each well, i) THP-1 cell count (cytotoxicity readout) and ii) average number of amastigotes per cell (potency readout) were calculated, both in terms of pEC50 values.

[4] = Assay 4 solubility assay, ChemiLuminescent Nitrogen Detection (CLND); type: physicochemical; conditions: phosphate buffered saline, pH 7.4, aqueous buffer, kinetic from dmso stock, pH 7.4 PBS, from 10 mM DMSO stock, 1 h at room temperature
Method in brief: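 Kinetic solubility: 10 mM DMSO stock diluted 5 µl into 100 µl pH 7.4 PBS, incubated 1 h at room temperature, then filtered. Filtrate quantified by HPLC with chemiluminescent nitrogen detection against ondansetron and caffeine standards; solubility in µM by linear-regression calibration.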

[5] = Assay 5 Leishmania donovani intracellular assay, cytotoxicity against THP-1 cells; type: cell-based; conditions: human, total number of THP-1 cells, minimum threshold 4.3, read-out: cytotoxicity against THP-1 cells, pEC50 value (converted)
Method: Compounds were dispensed into black 384-well assay plates (Greiner) by acoustic dispensing (LabCyte ECHO). For potency determinations, eleven-point, one in three dilution curves were generated, with a top concentration of 50 μM. THP-1 human monocytes cells were dispensed in T225 tissue culture flasks and differentiated using 30 nM of PMA, after 24 hours they were infected overnight using Leishmania donovani expressing Green Fluorescent Protein (eGFP) amastigotes in the same T225 tissue culture flasks at a multiplicity of infection of 10. Next, any remaining free amastigotes were washed away with PBS and the infected THP-1 cells were harvested by trypsinisation. The infected cells were then plated into 384-well plates containing the compounds to be tested, at 3000 cells per well in RPMI media with 2% FBS and 25 mM Sodium bicarbonate. After 96 h incubation at 37° C. in presence of 5% CO2, the plates were fixed with 4% formaldehyde for 30 minutes, washed with PBS and stained with 0.1 mg/mL of DAPI for 30 minutes and washed again with PBS. The plates were imaged on a Perkin Elmer Opera high-content imaging system using a 20× air objective with two expositions, one for DAPI stain and other for eGFP. Images were analysed using the Acapella building blocks system (Perkin Elmer). The image analysis algorithm first identified the THP-1 nuclei followed by demarcation of the cytoplasm and identification of intracellular amastigotes. This algorithm reported mean number of parasites per THP-1 cell, the percentage of infected THP-1 cells and the total number of THP-1 cells.

[6] = Assay 1 intramacrophage Leishmania donovani assay, THP-1 cell count (cytotoxicity readout); type: cell-based; conditions: human, minimum threshold 4.3, read-out: cytotoxicity against THP-1 cells, pEC50 value (converted)
Method: as §1

Row | EC50 (Trypanosoma brucei) [µM] | EC50 (Trypanosoma cruzi [2]) [µM] | EC50 (Leishmania donovani) [µM] | solubility at 1 h [4] [µM] | SMILES | EC50 (Trypanosoma cruzi [1]) [µM] | EC50 at 72 h [3] [µM] | EC50 at 96 h [5] [µM] | EC50 at 96 h [6] [µM]
1 | ≥ 20 | 20 | – | – | O=S(=O)(Nc1ccc(F)c(-c2cn3nc(N4CCOCC4)cnc3n2)c1)N1CCCC1 [Example 10, N-(4-fluoro-3-(2-morpholinoimidazo[1,2-b][1,2,4]triazin-6-yl)phenyl)pyrrolidine-1-sulfonamide] | 10 to 39.8 | – | – | –
2 | – | – | > 50.1 | – | O=S(=O)(Nc1ccc(F)c(-c2cn3nc(N4CCOCC4)cnc3n2)c1)C1CCCC1 [Example 33, N-(4-fluoro-3-(2-morpholinoimidazo [1,2-b][1,2,4]triazin-6-yl)phenyl)cyclo-pentanesulfonamide] | 10 to 39.8 | 0.794 to 3.16 | – | –
3 | – | – | – | 10 to 83 (≈ 4.46 to 37 µg/mL) | CNCc1ccc(-c2cnc3nc(-c4cc(NC(=O)N5CCCC5)ccc4F)cn3n2)cc1 [Example 38, N-(4-fluoro-3-(2-(4-((methylamino)methyl)phenyl)imidazo[1,2-b] [1,2,4]triazin-6-yl)phenyl)pyrrolidine-1-carboxamide] | 0.00501 to 0.631 | 0.794 to 3.16 | 2.51 to 10 | 3.98 to 15.8
4 | – | – | – | 10 to 83 (≈ 5.52 to 45.8 µg/mL) | COc1ccc(CNCc2cccc(-c3cnc4nc(-c5cc(NC(=O)N6CCCC6)ccc5F)cn4n3)c2)cc1 [Example 45, N-(4-fluoro-3-(2-(3-(((4-methoxybenzyl)amino)methyl)phenyl)imidazo [1,2-b][1,2,4]triazin-6-yl)phenyl)pyrrolidine-1-carboxamide] | 0.00501 to 0.631 | 0.794 to 3.16 | 2.51 to 10 | 3.98 to 15.8
